From ChEMBL document CHEMBL3045885, “Evaluation of antileishmanial activities of triglycerides isolated from roots of Moringa stenopetala” (Med Chem Res, 2013)
Converted amounts (≈) assume the structure as drawn.

How the values were obtained:
Leishmania aethiopica [1] = assay: Antileishmanial activity against promastigote form of Leishmania aethiopica MHOM/ET/82/117-82 […] after 72 hr; type: functional, organism-based; conditions: MHOM/ET/82/117-82, 72 h
Leishmania aethiopica [2] = assay: Antileishmanial activity against amastigote form of Leishmania aethiopica MHOM/ET/82/117-82 infected in BALB/c mouse peritoneal exudate macrophages after 5 days; type: functional, organism-based; conditions: MHOM/ET/82/117-82, 120 h

IC50 (Leishmania aethiopica [1])	IC50 (Leishmania aethiopica [2])	Structure (SMILES)
0.136 µg/mL (≈ 0.334 µM)	0.121 µg/mL (≈ 0.297 µM)	CCCCCCCCCCCCCCCCOP(=O)([O-])OCC[N+](C)(C)C [MILTEFOSINE]
0.079 µg/mL (≈ 0.0896 µM)	40 µg/mL (≈ 45.4 µM)	CCCCC/C=C\C/C=C\CCCCCCCC(=O)OCC(COC(=O)CCCCCCC/C=C\C/C=C\CCCCC)OC(=O)CCCCCCC/C=C\CCCCCCCC
0.004 µg/mL (≈ 0.00433 µM)	0.032 µg/mL (≈ 0.0346 µM)	C[C@@H]1[C@H](O)[C@@H](C)/C=C/C=C/C=C/C=C/C=C/C=C/C=C/[C@H](O[C@@H]2O[C@H](C)[C@@H](O)[C@H](N)[C@@H]2O)C[C@@H]2O[C@](O)(C[C@@H](O)C[C@@H](O)[C@H](O)CC[C@@H](O)C[C@@H](O)CC(=O)O[C@H]1C)C[C@H](O)[C@H]2C(=O)O [AMPHOTERICIN B]
242 µg/mL (≈ 274 µM)	26.8 µg/mL (≈ 30.3 µM)	CCCCC/C=C\C/C=C\CCCCCCCC(=O)OC(COC(=O)CCCCCCC/C=C\CCCCCCCC)COC(=O)CCCCCCC/C=C\CCCCCCCC
